The text below walks through data of article PMC11799985 (ACS Omega, 2024).

In the test the target is T1, TbSir2rp1 (Trypanosoma brucei brucei, UniProt Q57V41).
T1 construct: The TbSir2rp1 gene was cloned into the pET24(+) expression plasmid (Novagen); His tag; made in house; host or cells: Escherichia coli BL21-Codon Plus (DE3)-RIL
T1 sequence (Q57V41 1-351): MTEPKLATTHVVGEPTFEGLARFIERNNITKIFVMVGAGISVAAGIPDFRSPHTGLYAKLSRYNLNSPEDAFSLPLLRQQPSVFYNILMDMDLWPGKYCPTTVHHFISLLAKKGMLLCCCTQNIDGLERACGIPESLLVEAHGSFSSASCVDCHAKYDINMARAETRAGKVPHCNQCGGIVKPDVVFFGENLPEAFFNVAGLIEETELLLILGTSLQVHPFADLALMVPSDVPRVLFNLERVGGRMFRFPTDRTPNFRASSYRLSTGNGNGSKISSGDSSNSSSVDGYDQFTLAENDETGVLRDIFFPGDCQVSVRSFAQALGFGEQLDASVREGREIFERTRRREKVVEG
Description: biochemical. The conditions noted are these: for ligand efficiency (LE): LE = –R·T·ln(IC50)/HAC, from TbSir2rp1 IC50; for IC50: enzyme 1 μM, NAD+ 100 μM, acetylated peptide 50 μM, 37 °C, 2 h; for Hill coefficient (nH): concentration–response curve against TbSir2rp1. As for the experimental part: The acetylated peptide corresponds to the sequence Abz-Gly-Pro-acetylLys-SerGln–EDDnp, where Abz is ortho-aminobenzoic acid and EDDnp is N-[2,4-dinitrophenyl]ethylenediamine.
To halt the deacetylation reaction, 4 mM nicotinamide was used. For each pair of wells in the 96-well plate, 0.2 mg/mL of trypsin was added to only one well to hydrolyze the acetylated peptide, enabling fluorescence emission. Fluorescence was measured immediately at 420 nm with excitation at 320 nm using a SpectraMax M2 microplate reader (Molecular Devices).
Deacetylation activity was determined by the difference between the well where trypsin was added and the well without trypsin. All assays were performed in triplicate, and activity values were reported as means ± standard deviations with outliers identified and excluded from the calculations. Statistical analyses were conducted using Prism 7 software (GraphPad).
The screening of the 90 fragments was performed at a single concentration of 500 μM in triplicate. The enzyme was used at 1 μM, and the substrates NAD^+ and acetylated peptide were used at 100 and 50 μM, respectively. Incubation was carried out at 37.0 °C for 2 h. Each fragment was added to a pair of wells, with trypsin being added to only one well, as previously described for inhibitory activity calculation. […] Ligand efficiency (LE) was calculated as LE = –R·T·ln(IC50)/HAC using IC50 values instead of KD for comparison. […] The inhibition mechanism was characterized using Lineweaver–Burk plots under five concentrations of each substrate and three concentrations of the fragment. IC50 values were determined with at least seven different concentrations, and Lineweaver–Burk analysis used six concentrations.

The mark [1] stands for this setting: read-out: % Inhibition TbSir2rp1, Table S2, complete fragment library, single concentration of 500 μM.
Setting [2] is: read-out: % Inhibition TbSir2rp1 at 500 μM, Table 1, fragment 500 μM, triplicate, mean ± SD.

Entries after “also recorded” stand apart in the source; their conditions may differ. Read-outs that look alike come from different tables or passages of the source.

Usually IC50 stands for the concentration that gives 50% inhibition.

As to `NNS(=O)(=O)c1ccc(Cl)cc1` [NNS(=O)(C1=CC=C(Cl)C=C1)=O], under setting [1], the inhibition at 500 µM is 37 ± 24%. On the same count and under the same terms, next, `Cc1cc(Cl)ncc1N` [ClC1=NC=C(N)C(C)=C1]: 8.8 ± 19%; `CC1(C)CCC2=C(O1)C(=O)c1ccccc1C2=O` [O=C(C1=C2OC(C)(C)CC1)C3=CC=CC=C3C2=O]: 33 ± 14%. Still for that read-out and setting: next, `NNC(=O)Cc1cccnc1` [O=C(NN)CC1=CN=CC=C1]: 2.3 ± 22%; `CCOC(=O)c1ccc(N)cc1` [O=C(OCC)C1=CC=C(N)C=C1]: 12 ± 1.4%.

As for `Nc1ccc(C(=O)c2ccccc2)cc1` [Fragment 1.2], the “ligand efficiency (LE)” value was 0.37 and the “Hill coefficient (nH)” value is given as 0.72. For the same molecule, where the note is “TbSir2rp1, read-out: IC50”, the IC50 was determined as 80.9 µM. Further, the “inhibition mechanism (Lineweaver–Burk plot)” value (for both substrates, acetylated peptide and NAD+) is “competitive”. Take `CC(C)[C@@H]1CC[C@@H](C)CC1O` (stereo partly drawn) [OC1[C@H](C(C)C)CC[C@@H](C)C1]: the inhibition at 500 µM under setting [1] was found to be 22 ± 5%. Consider `CN[C@@H](C)[C@H](O)c1ccccc1` [C[C@H](NC)[C@@H](C1=CC=CC=C1)O], for which, under setting [1], the inhibition at 500 µM worked out at 23 ± 6.4%. On the same count and under the same terms, next, `C(=N\c1nnc(Cc2ccccc2)o1)/c1ccccc1`: 41 ± 12%; `CC(=O)n1ncc2cc(Cl)ncc21` [ClC1=NC=C(N(C(C)=O)N=C2)C2=C1]: 19 ± 9.9%. For `Sc1nc2ccccc2s1` [Fragment 1.3], the “ligand efficiency (LE)” value is reported as 0.54 and the “Hill coefficient (nH)” value was found to be 1.04. This molecule returned an IC50 (IC50, TbSir2rp1) of 125 µM.

On to `Cc1ccc(S(=O)(=O)NN)cc1` [NNS(C1=CC=C(C)C=C1)(=O)=O], for which, under setting [1], the inhibition at 500 µM came out at 53 ± 5.2%. For the molecule `C(=N\c1nncs1)/c1ccc(Sc2ccccc2)cc1`, under setting [1], the inhibition at 500 µM came to 38 ± 1.7%. Same read-out and setting: in the case of `O=C(/C=C/c1ccc(Cl)cc1)c1cccs1` [O=C(/C=C/C1=CC=C(Cl)C=C1)C2=CC=CS2] it was 32 ± 8.5%. For `O=C(/C=C/c1ccccc1Cl)c1ccc2c(c1)OCO2` [Fragment 12], the inhibition at 500 µM by setting is: under setting [1], 102 ± 5.9%; under setting [2], 102 ± 5.9%. As to `CC(=O)Nc1ccccc1` [CC(NC1=CC=CC=C1)=O], under setting [1], the inhibition at 500 µM turned out to be 7.7 ± 21%. `CCOC(=O)c1c(C)oc2ncccc12` [CC1=C(C(OCC)=O)C2=C(O1)N=CC=C2]: under setting [1], the inhibition at 500 µM is -29 ± 12%. `NNC(=O)c1ccncc1` [O=C(C1=CC=NC=C1)NN]: the inhibition at 500 µM under setting [1] is -4.9 ± 2.4%.

`Cc1ncc([N+](=O)[O-])n1CCO` [CC1=NC=C([N+]([O-])=O)N1CCO]: the inhibition at 500 µM under setting [1] is 14 ± 3.1%.

Turning to `COc1cc(C)c(NC(C)=O)cn1` [COC1=NC=C(NC(C)=O)C(C)=C1], the inhibition at 500 µM under setting [1] worked out at 1.6 ± 13%. Consider `NC(=O)c1ncn([C@@H]2O[C@H](CO)[C@@H](O)[C@H]2O)n1`, for which the inhibition at 500 µM under setting [1] is -11 ± 11%. Same read-out and setting: in the case of `O=C1NCCn2cccc21` [O=C1C2=CC=CN2CCN1] it was -35 ± 5%; in that of `O=C1CCSc2nc(-c3ccccc3)nn21` [O=C1CCSC2=NC(C3=CC=CC=C3)=NN21], 3 ± 1.7%; in that of `O=c1[nH]nc(-c2ccccc2)[nH]1` [O=C1NC(C2=CC=CC=C2)=NN1], 0.91 ± 7.3%.

On to `NNC(=O)/C=C/c1ccccc1` [NNC(/C=C/C1=CC=CC=C1)=O], for which the inhibition at 500 µM under setting [1] is 42 ± 8.5%. Take `COC(=O)Nc1nc2ccc(C(=O)c3ccccc3)cc2[nH]1` [mebendazole, reference compound]: the “ligand efficiency (LE)” value turned out to be 0.24 and the “Hill coefficient (nH)” value is reported as 1.25. Besides, under “TbSir2rp1, read-out: IC50”, the IC50 is 121 µM. In the case of `Cc1ccc(S(=O)(=O)n2cccc2)cc1` [O=S(N1C=CC=C1)(C2=CC=C(C)C=C2)=O], under setting [1], the inhibition at 500 µM was -22 ± 5.8%. Take `COc1cc2cn[nH]c2cn1` [COC1=NC=C(NN=C2)C2=C1]: the inhibition at 500 µM under setting [1] is 56 ± 15%. The same measure, in the same setting: in the case of `Cc1cccc(C)c1NC1=C(O)C(=O)c2ccccc2C1=O` it was 39 ± 4.6%; in that of `O=C1Nc2ccccc2C1=O` [O=C1NC2=C(C=CC=C2)C1=O], 49 ± 0.31%; in that of `O=C(NNc1ccccc1)NNc1ccccc1` [O=C(NNC1=CC=CC=C1)NNC2=CC=CC=C2], 48 ± 1.8%. Consider `Nc1nnc(-c2ccccc2)o1` [NC1=NN=C(O1)C2=CC=CC=C2], for which the inhibition at 500 µM under setting [1] was 16 ± 0.61%. On the same count and under the same terms, next, `NC(N)=NS(=O)(=O)c1ccc(N)cc1` [N/C(N)=N\S(=O)(C1=CC=C(N)C=C1)=O]: 1.8 ± 1.9%. Same read-out and setting: next, `NC(=O)N1c2ccccc2C=Cc2ccccc21` [O=C(N)N1C2=CC=CC=C2C=CC3=CC=CC=C31]: 2.1 ± 5%.

Take `Cc1ccc(S(=O)(=O)N(C)/N=C/c2cccs2)cc1` [Fragment 9]: the inhibition at 500 µM under setting [1] came to 65 ± 1.7% and the inhibition at 500 µM under setting [2] came out at 64.8 ± 1.7%.

`Cc1cn([C@H]2C[C@H](N=[N+]=[N-])[C@@H](CO)O2)c(=O)[nH]c1=O`: under setting [1], the inhibition at 500 µM was determined as 8.2 ± 1.4%.

Regarding `O=C(O)c1ccccc1O` [O=C(O)C1=CC=CC=C1O], the inhibition at 500 µM under setting [1] is -10 ± 1.7%. For the molecule `O=C1C(O)=C(Nc2ccc(F)cc2)C(=O)c2ccccc21`, the inhibition at 500 µM under setting [1] is 71 ± 23%. Turning to `Clc1cc2cn[nH]c2cn1` [Fragment 7], the inhibition at 500 µM under setting [1] came to 61 ± 9.1% and the inhibition at 500 µM under setting [2] is 60.6 ± 9.1%. Consider `CCOC(=O)c1c(C)oc2c1ccc[n+]2[O-]` [CC1=C(C(OCC)=O)C2=C(O1)[N+]([O-])=CC=C2], for which, under setting [1], the inhibition at 500 µM was -2.9 ± 10%. As to `CCc1[nH][nH]c(=O)c1-c1cccnc1O` [Fragment 3], the “ligand efficiency (LE)” value is listed as 0.37 and the “Hill coefficient (nH)” value was 1.77. In addition, the inhibition at 500 µM under setting [1] was 88 ± 14%. In addition, the inhibition at 500 µM under setting [2] turned out to be 88.3 ± 14.2%. For the molecule `c1ccc(C2CN3CCSC3=N2)cc1` (stereo not drawn) [C12=NC(C3=CC=CC=C3)CN1CCS2], the inhibition at 500 µM under setting [1] came out at 10 ± 1.4%. Still for that read-out and setting: in the case of `Cc1oc2ncccc2c1C(=O)O` [CC1=C(C(O)=O)C2=C(O1)N=CC=C2] it was 19 ± 17%. Regarding `Cc1ccc(S(=O)(=O)n2ncc3ccccc32)cc1` [CC1=CC=C(S(N2N=CC3=C2C=CC=C3)(=O)=O)C=C1], the inhibition at 500 µM under setting [1] is 4 ± 30%.

Regarding `N[C@@H](Cc1ccc(O)c(O)c1)C(=O)O` [O=C(O)[C@@H](N)CC1=CC=C(O)C(O)=C1], the inhibition at 500 µM under setting [1] was -4 ± 4.1%. `O=C1C(O)=C(Nc2ccccc2)C(=O)c2ccccc21` [Fragment 13]: the inhibition at 500 µM is 95 ± 4.9% under setting [1] and 95.3 ± 4.9% under setting [2]. With `NC(=O)c1cnccn1` [O=C(C1=NC=CN=C1)N], under setting [1], the inhibition at 500 µM worked out at 22 ± 1.5%.

`O=S(=O)(c1ccc(Cl)cc1)c1ccc(Cl)cc1` [ClC1=CC=C(S(C2=CC=C(Cl)C=C2)(=O)=O)C=C1]: the inhibition at 500 µM under setting [1] is 44 ± 12%. On the same count and under the same terms, next, `CC(C)(Oc1ccc(C2CC2(Cl)Cl)cc1)C(=O)O` (stereo not drawn) [CC(C)(OC1=CC=C(C2C(Cl)(Cl)C2)C=C1)C(O)=O]: 4.9 ± 4.7%. On the same count and under the same terms, next, `Cn1c(=O)c2[nH]cnc2n(C)c1=O` [O=C(N1C)N(C)C2=C(NC=N2)C1=O]: -2.1 ± 3%; `CCOc1ccc(NC(C)=O)cc1` [CC(NC1=CC=C(OCC)C=C1)=O]: -5.5 ± 1.5%; `O=C1NC(=O)C(c2ccccc2)(c2ccccc2)N1` [O=C1NC(C(C2=CC=CC=C2)(C3=CC=CC=C3)N1)=O]: 52 ± 2.3%. As to `CCOc1ccc2nc(N)sc2c1` [Fragment 1.4], the “inhibition of TbSir2rp1 (in words)” value is listed as “did not inhibit; also recorded: No inhibition”. As for `Nc1ccc(Nc2ccccc2)cc1` [Fragment 1.5], under “TbSir2rp1, read-out: IC50”, the IC50 is more than 500 µM. Turning to `O=c1ccc2ccccc2[nH]1` [Fragment 6], the “ligand efficiency (LE)” value turned out to be 0.41 and the “Hill coefficient (nH)” value is reported as 1.19. Further, the inhibition at 500 µM under setting [1] is 60 ± 5.5%. Besides, the inhibition at 500 µM under setting [2] stood at 59.7 ± 5.5%. For `N=C(N)N/N=C/c1cccs1` [Fragment 10], the inhibition at 500 µM runs as follows: under setting [1], 56 ± 4.9%; under setting [2], 55.7 ± 4.9%. On to `CC1(C)CCC2=C(O1)c1ccccc1C(=O)C2=O` [O=C1C2=C(OC(C)(C)CC2)C3=CC=CC=C3C1=O], for which, under setting [1], the inhibition at 500 µM is 43 ± 5.2%. Regarding `O=c1cc(-c2ccccc2)c2c(O)cc(O)cc2o1` [OC1=CC(O)=CC(O2)=C1C(C3=CC=CC=C3)=CC2=O], the inhibition at 500 µM under setting [1] was determined as 17 ± 27%. For `CCN(CC)CCOC(=O)c1ccc(N)cc1` [O=C(OCCN(CC)CC)C1=CC=C(N)C=C1], the inhibition at 500 µM under setting [1] was 50 ± 11%. On the same count and under the same terms, next, `Nc1cc2nc(-c3cccc(C(F)(F)F)c3)cn2cn1`: 19 ± 28%.
